Assay results as given in patent US10844077B2, “Thiazolyl-containing compounds for treating proliferative diseases” (Dana-Farber Cancer Institute, Inc., priority 2014, dated 2020).
Where two headings read alike, the source gives them in different places.

Key:
Assay type in all cases: binding
[1] = biological target: broad panel of kinases (Homo sapiens, UniProt O00238); settings: BMPR1B; 1 μM
[2] = biological target: broad panel of kinases (Homo sapiens, UniProt O14936); settings: CASK; 1 μM
[3] = biological target: broad panel of kinases (Homo sapiens, UniProt O14965); settings: AURKA; 1 μM
[4] = biological target: broad panel of kinases (Homo sapiens, UniProt O15530); settings: PDPK1; 1 μM
[5] = biological target: broad panel of kinases (Homo sapiens, UniProt O43318); settings: TAK1; 1 μM
[6] = biological target: broad panel of kinases (Homo sapiens, UniProt O75460); settings: ERN1; 1 μM
[7] = biological target: broad panel of kinases (Homo sapiens, UniProt O96017); settings: CHEK2; 1 μM
[8] = biological target: broad panel of kinases (Homo sapiens, UniProt P00519, H396P); settings: 1 μM
[9] = biological target: broad panel of kinases (Homo sapiens, UniProt P04049); settings: RAF1; 1 μM
[10] = biological target: broad panel of kinases (Homo sapiens, UniProt P07949, V804M); settings: RET(V804M); 1 μM
[11] = biological target: broad panel of kinases (Homo sapiens, UniProt P08581, Y1235D); settings: MET(Y1235D); 1 μM
[12] = biological target: broad panel of kinases (Homo sapiens, UniProt P20794); settings: MAK; 1 μM
[13] = biological target: broad panel of kinases (Homo sapiens, UniProt P21709); settings: EPHA1; 1 μM
[14] = biological target: broad panel of kinases (Homo sapiens, UniProt P36896); settings: ACVR1B; 1 μM
[15] = biological target: broad panel of kinases (Homo sapiens, UniProt P41240); settings: CSK; 1 μM
[16] = biological target: broad panel of kinases (Homo sapiens, UniProt P42336, E542K); settings: PIK3CA(E542K); 1 μM
[17] = biological target: broad panel of kinases (Homo sapiens, UniProt P49759); settings: CLK1; 1 μM
[18] = biological target: broad panel of kinases (Homo sapiens, UniProt P52564); settings: MEK6; 1 μM
[19] = biological target: broad panel of kinases (Homo sapiens, UniProt P53350); settings: PLK1; 1 μM
[20] = biological target: broad panel of kinases (Homo sapiens, UniProt P54756); settings: EPHA5; 1 μM
[21] = biological target: broad panel of kinases (Homo sapiens, UniProt P78368); settings: CSNK1G2; 1 μM
[22] = biological target: broad panel of kinases (Homo sapiens, UniProt Q13163); settings: MEK5; 1 μM
[23] = biological target: broad panel of kinases (Homo sapiens, UniProt Q13546); settings: RIPK1; 1 μM
[24] = biological target: broad panel of kinases (Homo sapiens, UniProt Q15831); settings: LKB1; 1 μM
[25] = biological target: broad panel of kinases (Homo sapiens, UniProt Q2M2I8); settings: AAK1; 1 μM
[26] = biological target: broad panel of kinases (Homo sapiens, UniProt Q32MK0); settings: MLCK; 1 μM
[27] = biological target: broad panel of kinases (Homo sapiens, UniProt Q86UX6); settings: YANK3; 1 μM
[28] = biological target: broad panel of kinases (Homo sapiens, UniProt Q8N5S9); settings: CAMKK1; 1 μM
[29] = biological target: broad panel of kinases (Homo sapiens, UniProt Q8TDC3); settings: BRSK1; 1 μM
[30] = biological target: broad panel of kinases (Homo sapiens, UniProt Q8TF76); settings: HASPIN; 1 μM
[31] = biological target: broad panel of kinases (Homo sapiens, UniProt Q9BX84); settings: TRPM6; 1 μM
[32] = biological target: broad panel of kinases (Homo sapiens, UniProt Q9H4B4); settings: PLK3; 1 μM
[33] = biological target: broad panel of kinases (Homo sapiens, UniProt Q9HBY8); settings: SGK2; 1 μM
[34] = biological target: broad panel of kinases (Homo sapiens, UniProt Q9HC98); settings: NEK6; 1 μM
[35] = biological target: broad panel of kinases (Homo sapiens, UniProt Q9NRM7); settings: LATS2; 1 μM
[36] = biological target: broad panel of kinases (Homo sapiens, UniProt Q9UK32); settings: 1 μM
[37] = biological target: broad panel of kinases (Mycobacterium tuberculosis, UniProt P9WI81)
Chain of broad panel of kinases (Mycobacterium tuberculosis, UniProt P9WI81) (P9WI81 2-626 limits assumed): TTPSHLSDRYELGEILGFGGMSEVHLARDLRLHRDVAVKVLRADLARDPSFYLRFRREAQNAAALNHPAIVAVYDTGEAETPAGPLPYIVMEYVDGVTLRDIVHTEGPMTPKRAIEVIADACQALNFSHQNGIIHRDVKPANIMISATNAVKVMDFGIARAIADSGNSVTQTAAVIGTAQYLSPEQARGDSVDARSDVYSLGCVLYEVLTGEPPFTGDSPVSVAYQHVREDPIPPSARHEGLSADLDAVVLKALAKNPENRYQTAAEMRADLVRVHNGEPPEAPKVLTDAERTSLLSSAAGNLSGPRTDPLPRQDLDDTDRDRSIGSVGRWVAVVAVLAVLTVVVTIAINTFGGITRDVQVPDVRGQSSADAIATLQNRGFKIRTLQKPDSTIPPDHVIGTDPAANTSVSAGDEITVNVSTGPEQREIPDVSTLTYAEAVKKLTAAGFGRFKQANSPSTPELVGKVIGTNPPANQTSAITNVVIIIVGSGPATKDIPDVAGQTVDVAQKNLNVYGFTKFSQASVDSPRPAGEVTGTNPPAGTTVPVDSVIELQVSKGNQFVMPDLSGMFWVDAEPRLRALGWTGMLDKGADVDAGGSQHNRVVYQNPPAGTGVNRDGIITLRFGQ

Chain of broad panel of kinases (Homo sapiens, UniProt P08581, Y1235D) (P08581 25-1390 Y1235D limits assumed): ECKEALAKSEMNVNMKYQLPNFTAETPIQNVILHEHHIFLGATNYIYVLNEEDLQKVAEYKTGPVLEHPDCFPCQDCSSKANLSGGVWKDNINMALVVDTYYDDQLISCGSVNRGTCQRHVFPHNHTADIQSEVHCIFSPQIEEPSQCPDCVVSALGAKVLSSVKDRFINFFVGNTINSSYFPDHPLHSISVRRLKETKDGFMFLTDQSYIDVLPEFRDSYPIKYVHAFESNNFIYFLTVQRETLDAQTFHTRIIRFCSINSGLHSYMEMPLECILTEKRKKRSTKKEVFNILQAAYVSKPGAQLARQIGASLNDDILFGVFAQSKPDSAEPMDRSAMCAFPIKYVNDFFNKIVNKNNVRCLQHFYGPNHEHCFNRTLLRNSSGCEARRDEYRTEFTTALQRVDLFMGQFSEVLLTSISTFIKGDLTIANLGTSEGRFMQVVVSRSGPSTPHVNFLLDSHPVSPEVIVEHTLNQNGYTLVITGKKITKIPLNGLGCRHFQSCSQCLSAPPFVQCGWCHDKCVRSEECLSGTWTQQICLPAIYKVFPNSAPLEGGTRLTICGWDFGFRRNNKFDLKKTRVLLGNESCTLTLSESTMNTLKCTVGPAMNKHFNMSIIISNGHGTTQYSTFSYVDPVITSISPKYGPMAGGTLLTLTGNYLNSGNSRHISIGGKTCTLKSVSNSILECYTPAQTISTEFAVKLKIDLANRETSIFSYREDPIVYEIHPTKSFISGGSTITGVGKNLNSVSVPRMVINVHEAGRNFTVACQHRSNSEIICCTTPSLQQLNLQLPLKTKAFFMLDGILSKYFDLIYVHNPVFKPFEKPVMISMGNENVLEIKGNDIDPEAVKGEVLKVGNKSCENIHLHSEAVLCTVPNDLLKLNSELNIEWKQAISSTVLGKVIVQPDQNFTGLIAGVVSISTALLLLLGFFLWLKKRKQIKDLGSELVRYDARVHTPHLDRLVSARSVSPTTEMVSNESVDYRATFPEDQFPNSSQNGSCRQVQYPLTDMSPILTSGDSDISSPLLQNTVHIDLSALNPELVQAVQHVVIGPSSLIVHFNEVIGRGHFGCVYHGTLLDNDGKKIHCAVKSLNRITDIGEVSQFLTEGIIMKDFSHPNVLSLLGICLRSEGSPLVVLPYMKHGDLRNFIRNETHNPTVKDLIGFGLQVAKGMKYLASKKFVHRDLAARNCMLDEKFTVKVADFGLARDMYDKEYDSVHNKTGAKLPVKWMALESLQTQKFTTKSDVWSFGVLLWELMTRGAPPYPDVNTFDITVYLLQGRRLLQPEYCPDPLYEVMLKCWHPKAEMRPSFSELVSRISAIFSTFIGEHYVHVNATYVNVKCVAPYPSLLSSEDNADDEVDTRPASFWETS
Chain of broad panel of kinases (Homo sapiens, UniProt O75460) (O75460 19-977 limits assumed): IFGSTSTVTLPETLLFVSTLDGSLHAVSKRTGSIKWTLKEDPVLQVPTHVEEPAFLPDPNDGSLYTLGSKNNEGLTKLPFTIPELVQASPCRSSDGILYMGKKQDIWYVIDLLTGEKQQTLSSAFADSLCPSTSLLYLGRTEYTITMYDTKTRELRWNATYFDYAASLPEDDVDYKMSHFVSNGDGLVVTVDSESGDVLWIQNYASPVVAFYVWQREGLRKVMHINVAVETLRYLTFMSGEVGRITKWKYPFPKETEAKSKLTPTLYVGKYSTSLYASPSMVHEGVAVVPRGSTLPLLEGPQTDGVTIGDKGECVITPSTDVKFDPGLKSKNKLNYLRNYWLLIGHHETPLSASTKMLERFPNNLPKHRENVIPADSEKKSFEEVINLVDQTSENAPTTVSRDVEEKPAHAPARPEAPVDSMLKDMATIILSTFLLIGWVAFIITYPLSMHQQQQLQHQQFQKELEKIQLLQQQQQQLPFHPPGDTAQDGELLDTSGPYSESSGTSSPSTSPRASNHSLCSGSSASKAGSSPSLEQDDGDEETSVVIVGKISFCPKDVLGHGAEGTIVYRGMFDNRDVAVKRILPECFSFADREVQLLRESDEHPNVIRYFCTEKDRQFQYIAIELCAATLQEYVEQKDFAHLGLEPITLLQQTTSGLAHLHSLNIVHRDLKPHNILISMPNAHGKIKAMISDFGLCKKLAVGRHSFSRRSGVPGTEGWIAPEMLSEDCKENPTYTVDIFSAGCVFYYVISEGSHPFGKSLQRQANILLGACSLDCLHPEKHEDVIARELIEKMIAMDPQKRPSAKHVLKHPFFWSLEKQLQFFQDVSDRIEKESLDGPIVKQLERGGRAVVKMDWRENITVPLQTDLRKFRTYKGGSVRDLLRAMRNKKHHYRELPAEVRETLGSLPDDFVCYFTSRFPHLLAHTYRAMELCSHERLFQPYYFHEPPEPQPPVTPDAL
Chain of broad panel of kinases (Homo sapiens, UniProt P54756) (P54756 25-1037 limits assumed): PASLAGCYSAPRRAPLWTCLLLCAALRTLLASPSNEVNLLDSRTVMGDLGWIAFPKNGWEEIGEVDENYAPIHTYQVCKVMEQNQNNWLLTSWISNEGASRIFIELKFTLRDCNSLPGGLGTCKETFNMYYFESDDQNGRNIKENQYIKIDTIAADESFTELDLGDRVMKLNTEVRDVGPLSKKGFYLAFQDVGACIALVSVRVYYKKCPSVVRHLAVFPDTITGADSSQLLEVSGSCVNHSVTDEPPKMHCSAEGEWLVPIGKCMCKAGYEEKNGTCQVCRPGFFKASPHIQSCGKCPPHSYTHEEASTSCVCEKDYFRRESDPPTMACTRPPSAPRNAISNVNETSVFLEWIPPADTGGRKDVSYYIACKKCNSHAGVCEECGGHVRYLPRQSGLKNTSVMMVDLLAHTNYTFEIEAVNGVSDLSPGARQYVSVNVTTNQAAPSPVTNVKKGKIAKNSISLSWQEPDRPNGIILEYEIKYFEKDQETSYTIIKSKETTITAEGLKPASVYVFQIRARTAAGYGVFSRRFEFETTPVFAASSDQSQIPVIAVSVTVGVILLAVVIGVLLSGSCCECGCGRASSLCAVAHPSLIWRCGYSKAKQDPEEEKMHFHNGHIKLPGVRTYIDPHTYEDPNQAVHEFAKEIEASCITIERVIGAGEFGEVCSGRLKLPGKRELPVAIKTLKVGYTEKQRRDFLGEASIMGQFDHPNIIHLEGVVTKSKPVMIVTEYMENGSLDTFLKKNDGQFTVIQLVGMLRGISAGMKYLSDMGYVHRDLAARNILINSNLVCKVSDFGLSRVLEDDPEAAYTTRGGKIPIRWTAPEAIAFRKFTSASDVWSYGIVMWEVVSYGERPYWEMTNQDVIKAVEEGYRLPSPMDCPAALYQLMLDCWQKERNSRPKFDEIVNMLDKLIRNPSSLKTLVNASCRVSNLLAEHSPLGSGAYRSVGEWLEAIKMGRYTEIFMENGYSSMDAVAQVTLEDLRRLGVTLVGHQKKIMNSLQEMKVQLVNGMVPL
Chain of broad panel of kinases (Homo sapiens, UniProt P53350) (P53350 2-603 limits assumed): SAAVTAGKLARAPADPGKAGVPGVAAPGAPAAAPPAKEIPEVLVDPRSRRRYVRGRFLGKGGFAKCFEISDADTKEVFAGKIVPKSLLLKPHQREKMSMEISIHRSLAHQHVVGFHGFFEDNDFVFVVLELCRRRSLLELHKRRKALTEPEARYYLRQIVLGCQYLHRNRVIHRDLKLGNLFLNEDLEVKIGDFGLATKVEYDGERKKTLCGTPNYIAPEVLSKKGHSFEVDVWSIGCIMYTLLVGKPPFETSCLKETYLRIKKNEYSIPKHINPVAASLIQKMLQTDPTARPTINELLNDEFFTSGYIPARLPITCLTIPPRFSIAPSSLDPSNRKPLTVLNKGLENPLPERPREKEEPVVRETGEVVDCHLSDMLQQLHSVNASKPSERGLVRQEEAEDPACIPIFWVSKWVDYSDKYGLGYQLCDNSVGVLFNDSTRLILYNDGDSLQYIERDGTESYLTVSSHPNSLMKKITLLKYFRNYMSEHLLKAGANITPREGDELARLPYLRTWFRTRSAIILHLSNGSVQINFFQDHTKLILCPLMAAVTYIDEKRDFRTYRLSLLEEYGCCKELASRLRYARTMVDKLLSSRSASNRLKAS
Chain of broad panel of kinases (Homo sapiens, UniProt P36896) (P36896 24-505 limits assumed): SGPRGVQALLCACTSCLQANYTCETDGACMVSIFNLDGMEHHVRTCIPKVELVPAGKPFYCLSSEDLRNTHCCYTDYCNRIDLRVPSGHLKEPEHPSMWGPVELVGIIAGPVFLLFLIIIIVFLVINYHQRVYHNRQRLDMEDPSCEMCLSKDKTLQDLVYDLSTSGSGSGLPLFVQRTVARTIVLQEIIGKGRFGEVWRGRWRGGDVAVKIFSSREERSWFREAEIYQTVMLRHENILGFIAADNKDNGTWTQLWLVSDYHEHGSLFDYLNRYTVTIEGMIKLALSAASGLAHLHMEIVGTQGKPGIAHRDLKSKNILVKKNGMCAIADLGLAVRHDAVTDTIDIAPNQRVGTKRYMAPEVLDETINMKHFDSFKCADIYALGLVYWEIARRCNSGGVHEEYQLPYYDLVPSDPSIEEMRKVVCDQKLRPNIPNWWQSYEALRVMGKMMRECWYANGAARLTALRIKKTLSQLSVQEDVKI

SMILES | percent of control binding remaining (lower = stronger binding) [1] | percent of control binding remaining (lower = stronger binding) [2] | percent of control binding remaining (lower = stronger binding) [3] | percent of control binding remaining (lower = stronger binding) [4] | percent of control binding remaining (lower = stronger binding) [5] | percent of control binding remaining (lower = stronger binding) [6] | percent of control binding remaining (lower = stronger binding) [7] | percent of control binding remaining (lower = stronger binding) [9] | percent of control binding remaining (lower = stronger binding) [10] | percent of control binding remaining (lower = stronger binding) [11] | percent of control binding remaining (lower = stronger binding) [12] | percent of control binding remaining (lower = stronger binding) [13] | percent of control binding remaining (lower = stronger binding) [14] | percent of control binding remaining (lower = stronger binding) [15] | percent of control binding remaining (lower = stronger binding) [16] | percent of control binding remaining (lower = stronger binding) [17] | percent of control binding remaining (lower = stronger binding) [18] | percent of control binding remaining (lower = stronger binding) [19] | percent of control binding remaining (lower = stronger binding) [20] | percent of control binding remaining (lower = stronger binding) [21] | other results
C=CC(=O)N1CC[C@H](Nc2nc(CN3CCOCC3)cc(Nc3ncc(C(=O)Nc4c(C)cccc4C)s3)n2)C1 [Example I-2] | 10% | 100% | 73% | 98% | 95% | 83% | 97% | 26% | 100% | 95% | 100% | 0.5% | 68% | 1.6% | 92% | 92% | 82% | 92% | 0.95% | 97% | percent of control binding remaining (lower = stronger binding) ([8]; ABL1(H396P)-nonphosphorylated): 0%; percent of control binding remaining (lower = stronger binding) ([8]; ABL1(H396P)-phosphorylated): 0%; percent of control binding remaining (lower = stronger binding) [22]: 0.25%; percent of control binding remaining (lower = stronger binding) [23]: 100%; percent of control binding remaining (lower = stronger binding) [24]: 100%; percent of control binding remaining (lower = stronger binding) [25]: 97%; percent of control binding remaining (lower = stronger binding) [26]: 100%; percent of control binding remaining (lower = stronger binding) [27]: 83%; percent of control binding remaining (lower = stronger binding) [28]: 100%; percent of control binding remaining (lower = stronger binding) [29]: 100%; percent of control binding remaining (lower = stronger binding) [30]: 100%; percent of control binding remaining (lower = stronger binding) [31]: 61%; percent of control binding remaining (lower = stronger binding) [32]: 99%; percent of control binding remaining (lower = stronger binding) [33]: 72%; percent of control binding remaining (lower = stronger binding) [34]: 100%; percent of control binding remaining (lower = stronger binding) [35]: 100%; percent of control binding remaining (lower = stronger binding) ([36]; RSK4(Kin.Dom.1-N-terminal)): 100%; percent of control binding remaining (lower = stronger binding) ([36]; RSK4(Kin.Dom.2-C-terminal)): 100%; % change compared to control [37]: 73%
C=CC(=O)N1CC[C@H](Nc2nccc(Nc3ncc(C(=O)Nc4c(C)cccc4C)s3)n2)C1 [Example I-3] | 45% | 98% | 80% | 87% | 90% | 76% | 97% | 26% | 100% | 92% | 100% | 1.6% | 100% | 1.6% | 100% | 100% | 89% | 83% | 0.85% | 93% | % change compared to control ([8]; ABL1(H396P)-nonphosphorylated): 0.05%; % change compared to control ([8]; ABL1(H396P)-phosphorylated): 0%; percent of control binding remaining (lower = stronger binding) [22]: 0.45%; percent of control binding remaining (lower = stronger binding) [23]: 100%; percent of control binding remaining (lower = stronger binding) [24]: 100%; percent of control binding remaining (lower = stronger binding) [25]: 100%; percent of control binding remaining (lower = stronger binding) [26]: 100%; percent of control binding remaining (lower = stronger binding) [27]: 91%; percent of control binding remaining (lower = stronger binding) [28]: 97%; percent of control binding remaining (lower = stronger binding) [29]: 100%; percent of control binding remaining (lower = stronger binding) [30]: 88%; percent of control binding remaining (lower = stronger binding) [31]: 63%; percent of control binding remaining (lower = stronger binding) [32]: 97%; percent of control binding remaining (lower = stronger binding) [33]: 76%; percent of control binding remaining (lower = stronger binding) [34]: 64%; percent of control binding remaining (lower = stronger binding) [35]: 92%; percent of control binding remaining (lower = stronger binding) ([36]; RSK4(Kin.Dom.1-N-terminal)): 100%; percent of control binding remaining (lower = stronger binding) ([36]; RSK4(Kin.Dom.2-C-terminal)): 97%; % change compared to control [37]: 91%
